Patent US11299453B2 (Universität zu Köln, priority 2017, dated 2022)

How the values were obtained:
[1] = tested on: residual PSCs in pre-purified cardiac clusters of murine αPIG-AT25 iPSCs; experiment: Colony formation assay after treatment of pre-purified miPSC cardiac clusters; format: cell-based; conditions: 48 h
Description: (§1) Aiming at complete elimination of remaining PSCs in PSC-derived cell aggregates, murine cardiac clusters were pre-purified with 2-4 μg/ml puromycin from day 9 until day 14 of differentiation in order to prevent complete removal of PSCs and then treated with SM6 for 2 days to assess its potential for removal of contaminating PSCs in the absence of puromycin. After treatment, cardiac clusters were dissociated with 0.25% trypsin-EDTA supplemented with 50 U/ml of DNase I and the level of PSC contamination was determined using colony formation assay, flow cytometry for SSEA-1 and RT-PCR for Oct4. In colony formation assays 2×10^5 cells were plated on a 6 cm cell culture dish containing MEF and cultured in maintenance medium supplemented with 1000 U/ml of mLIF for 7-10 days. Developing PSC colonies on MEF plates were quantified and visualized with 1% crystal violet (Fluka Analytical, St. Louis, USA) diluted in methanol (Applichem).
Murine αPIG-AT25 iPSCs were differentiated in spinner flasks and pre-purification of CMs with puromycin was initiated on day 9 for a time period of 5 days, as is schematically illustrated in FIG. 6a). Compared to the standard protocol for the selection of miPSC-CMs, the applied concentration of puromycin was reduced from 8 μg/ml to 2 μg/ml in order to preserve a small population of PSCs in the cardiac clusters which were then treated with 1 μM, 5 μM and 10 μM of compound SM6 for 48 hours.
For quantifying the residual PSCs, the cardiac cluster-derived cells were cultured on MEFs under iPSC conditions to allow PSCs to form colonies which were visualized by crystal violet staining. The pluripotency of grown colonies was confirmed by immunocytochemical stainings for Oct4, at day 7 after plating of CMs from dissociated cardiac clusters on MEF.

[2] = tested on: colony forming PSCs in pre-purified cardiac clusters of murine ESC line αPIG44-D3; experiment: Colony formation assay after treatment of pre-purified mESC cardiac clusters; format: cell-based; conditions: 48 h
Description: as §1
To confirm the PSC-eliminating effect of the compound SM6, pre-purified cardiac clusters derived from transgenic murine ESC line αPIG44-D3 were also treated with SM6. The cells were differentiated in spinner flasks and incubated for 48 h with compound SM6 as described above with the exception that pre-purification was performed with 4 μg/ml of puromycin between day 9 and day 14, as schematically illustrated in FIG. 7a).

Oc1ccccc1CN[C@@H]1CCCC[C@H]1NCc1ccccc1O [SM6, (1R,2R)-N,N′-di(2-hydroxybenzyl)-1,2-diaminocyclohexane]
reduction of the number of colonies compared to DMSO-treated control ([1]; 1 μM): 71.9±21.19%
number of colonies after plating of 2×10^5 cells ([1]; 5 μM): 2.00±2.94 colonies
number of colonies after plating of 2×10^5 cells ([1]; 10 μM): 0.37±0.60 colonies
reduction of the number of ESC-derived colonies compared to DMSO control ([2]; 1 μM): 20.03±26.95%
reduction of the number of ESC-derived colonies compared to DMSO control ([2]; 5 μM): 93.75±3.45%
reduction of the number of ESC-derived colonies compared to DMSO control ([2]; 10 μM): 96.23±0.75%

COc1ccc(C[C@H](N)C(=O)N[C@H]2[C@@H](O)[C@H](n3cnc4c(N(C)C)ncnc43)O[C@@H]2CO)cc1 [puromycin, reference compound]
number of colonies after plating of 2×10^5 cells ([1]; puromycin 8 μg/ml): 28.9±23.37 colonies
reduction of the number of colonies compared to DMSO-treated control ([1]; puromycin 8 μg/ml): 64.87±25.55%
reduction of the number of ESC-derived colonies compared to DMSO control ([2]; puromycin 8 μg/ml): 47.83±24.89%
